Source: a melting point compilation (Tetko et al.)

Row | SMILES | melting point
1 | c1ccc(N=Nc2ccc(Nc3ccccc3)cc2)cc1 | 90 °C
2 | O=[N+]([O-])c1cc(F)ccc1Cl | 38 °C
3 | N#C/C(=N\Nc1c(Br)cc(Br)cc1Br)c1nc2ccccc2s1 | 179 °C
4 | Sc1nccc(-c2cccs2)n1 | 206 to 215 °C
5 | N#C/C(=N\Nc1ccc(Cl)cc1)c1nc2ccccc2c(=O)[nH]1 | 253 °C
6 | N#C/C(=N\Nc1ccc2ccccc2c1)c1nc(-c2ccc(Cl)cc2)cs1 | 218 °C
7 | CC(C)(C)c1cc2c(O)c(c1)Cc1cc(C(C)(C)C)cc(c1O)Cc1cc(C(C)(C)C)cc(c1O)Cc1cc(C(C)(C)C)cc(c1O)Cc1cc(C(C)(C)C)cc(c1O)C2 | 310 to 312 °C
8 | CC(C)Oc1ccccc1 | -33 °C
9 | COCC(=O)N(c1c(C)cccc1C)C(C)C(=O)OC (configuration not stated) | 71 °C
10 | O=C(c1ccccc1)C(Br)C(Br)c1ccccc1 (configuration not stated) | 156 °C
11 | Nc1nccnn1 | 176 °C
12 | Cc1cc(Cl)c(O)c(Cl)c1 | 39 °C
13 | Ic1ccc(I)nc1 | 155 °C
14 | Nc1ccc(C=CC(=O)c2ccccc2)cc1 | 151 °C
15 | O=C(Nc1cccc(Cl)c1)Nc1nnc(-c2ccc(Cl)cc2)o1 | 246 to 247 °C
16 | N#CC(N)C(N)=O (configuration not stated) | 120 to 124 °C
17 | O=C1CCCc2c1nc(-c1ccccc1)n2O | 247 to 257 °C
18 | O=C(NC(=S)c1ccc[nH]1)Nc1ccccc1 | 205 to 208 °C
19 | ON=Cc1cccnc1 | 150 °C
20 | COc1cccc2cc(C(=O)Cc3c(C)cc(C)cc3C)oc12 | 121 to 122 °C
21 | Cc1cc(C=O)nn1C | 56 to 57 °C
22 | NC(=O)/C(=N\Nc1cc(Cl)ccc1Cl)c1nc2ccccc2s1 | 270 °C

Row | SMILES | melting point
23 | Clc1ccc(-c2cn3c(n2)sc2ccccc23)cc1 | 158 to 160 °C
24 | Nn1cnc2c(c(Br)nn2C2CCCCC2)c1=O | 253 to 254 °C
25 | O=C1NC(=S)NC(=O)C1=NNc1ccc(C(=O)O)cc1 | 340 °C
26 | CC1=NN(c2ccc(C(=O)O)cc2)C(=O)C1 | 284 to 288 °C
27 | CCCCCCCCCCCI | 2 °C
28 | OCCN(CCO)C(CO)(CO)CO | 104 °C
29 | Cn1nc(CCNC(=O)c2cc([N+](=O)[O-])cc([N+](=O)[O-])c2)c2c(N)ncnc21 | 281 °C
30 | O=C1C=CC(=O)N1c1ccc(Br)cc1 | 135 to 137 °C
31 | O=C(O)CCCCl | 16 °C
32 | CSc1ccc(Oc2cccc(F)c2C#N)cc1 | 68 to 71 °C
33 | CCCCOC(=O)C(C)Oc1ccc(Oc2ccc(C(F)(F)F)cn2)cc1 (configuration not stated) | 13 °C
34 | BrCc1ccc(-c2ccccc2)cc1 | 86 to 87 °C
35 | Clc1cc(Cl)c(I)cc1Cl | 104 °C
36 | O=C(O)c1ccc(-c2cccnc2)cc1 | 271 to 274 °C
37 | N#C/C(=N/Nc1ccccc1[N+](=O)[O-])c1nc(-c2ccccc2)cs1 | 210 °C
38 | CC(C)(C)OC(=O)N1CCC(Oc2ccc([N+](=O)[O-])cc2)CC1 | 99 to 101 °C
39 | COc1ccccc1/N=N/c1c(N)nn2c(C(F)(F)F)cc(=O)[nH]c12 | 295 °C
40 | CC=Cc1cc(OC)c(OC)cc1OC | 62.5 °C
41 | COc1c(Cl)ccc(Cl)c1C(=O)O | 115 °C
42 | Cc1nn(Cc2nnc(S)o2)c(C)c1Br | 194 to 195 °C
43 | Cc1cccc2c1C(=O)OC2 | 86 °C
44 | Nc1ncnc2c1ncn2C1OC(CI)C(O)C1O (configuration not stated) | 178 to 187 °C

Row | SMILES | melting point
45 | CCC(C)OC (configuration not stated) | -100 °C
46 | CCOC(=O)c1nn(-c2ccc(F)cc2)c(-c2cccs2)c1S(=O)(=O)c1ccccc1 | 151 °C
47 | CCOC(=O)c1cc2c(=O)oc3ccccc3c2nc1NC | 232 to 233 °C
48 | CC12CCc3c(ccc4cc(O)ccc34)C1(C)CCC2=O (configuration not stated) | 261 °C
49 | O=[N+]([O-])c1cc(/C=N\c2ccccc2)ccc1/C=N/c1ccccc1 | 133 to 134 °C
50 | Cc1ccc2ccccc2c1[N+](=O)[O-] | 81.5 °C
51 | O=C(C[N+](=O)[O-])c1cccc(C(=O)C[N+](=O)[O-])c1 | 160 °C
52 | CC(C)(O)C(Cl)(Cl)Cl | 97 °C
53 | Cc1ccc(C(=O)c2ccccc2N)cc1 | 91 to 94 °C
54 | Clc1ccccc1C=C1c2ccccc2-c2ccccc21 | 69.5 °C
55 | CC(C)[C@@H]1COC(=O)N1 | 70 to 73 °C
56 | COc1ccc(C2Nc3nc(C(F)(F)F)nn3C(N)=C2C#N)cc1 (configuration not stated) | 211 °C
57 | Nc1n[nH]c(S)n1 | 300 °C
58 | CN(C)NN=C1N=CN=C1C(N)=O | 205 °C
59 | CC1=NN(c2ccc([N+](=O)[O-])cc2)C(=O)C1 | 220 to 225 °C
60 | Oc1ccc(O)c(Cl)c1 | 108 °C
61 | O=C(CBr)c1ccc(-c2ccsc2)cc1 | 113 to 115 °C
62 | CS(=O)(=O)CCCN=C=S | 47.5 °C
63 | O=C(CCl)NNC(=O)c1ccccc1 | 163 to 166 °C
64 | N=C(N)N(c1ccccc1)c1ccccc1 | 150 °C
65 | Cc1ccc(N/N=C(/C(=O)c2cccc3ccccc23)S(=O)(=O)c2ccccc2)cc1 | 108 to 110 °C
66 | Nc1ccc(Oc2ccc(Br)cc2)nc1 | 107 to 109 °C

Row | SMILES | melting point
67 | CCCC(C1CCCCC1)C1CCCCC1 | -10.5 °C
68 | CC(Oc1ccc(Oc2ncc(C(F)(F)F)cc2Cl)cc1)C(=O)O (configuration not stated) | 108 °C
69 | CCCCCCCCCCCCCCCCCC(=O)OCCCCCCCCCCCCCCCC | 57 °C
70 | C=COCCCCCCCCCC | -41 °C
71 | O=Cc1cccn1-c1ccc([N+](=O)[O-])cc1 | 166 to 169 °C
72 | Cc1cc(Oc2ccc(C(F)(F)F)cc2[N+](=O)[O-])ccc1Cl | 57 to 59 °C
73 | O=C(O)C=Cc1cccs1 | 145 to 148 °C
74 | c1ccc(-c2ccc(-c3nnc(-c4ccc(-c5ccccc5)cc4)o3)cc2)cc1 | 237 °C
75 | CC(=O)Nc1ccc(C#N)c(C(F)(F)F)c1 | 170 to 173 °C
76 | N#CC(F)(Cl)Cl | -110 °C
77 | CC1CCC(C(C)C)C(OC(=O)C2=CCC(C(=O)OC3CC(C)CCC3C(C)C)=CC2)C1 (configuration not stated) | 68 °C
78 | O=S(=O)(Cl)c1cnc(Cl)c(Br)c1 | 68 °C
79 | COc1ccc2c(=O)n3ccccc3cc2c1 | 130 °C
80 | CC(Cl)OC(=O)Cl (configuration not stated) | -65 °C
81 | NNC(N)=O | 96 °C
82 | CCOC(=O)c1sc(-c2ccc(N)cc2)nc1C | 128 °C
83 | CCOC(=O)/C(=C\c1ccccc1)c1ccccc1[N+](=O)[O-] | 95 °C
84 | Clc1ccc2ccccc2c1Cl | 36 °C
85 | COC(=O)c1sc(N(C)C)c(C#N)c1N | 240 to 243 °C
86 | Cc1nc(-c2ccc(N)cc2)no1 | 113 to 114 °C
87 | COc1ccc(F)c(F)c1O | 46 °C
88 | NC(=O)c1ccc(-c2ccccn2)s1 | 197 to 199 °C

Row | SMILES | melting point
89 | O=C1OC=CC(c2ccccc2)Cc2ccccc21 (configuration not stated) | 120 °C
90 | Cc1nc2ccccc2c(C(=O)O)c1C(=O)O | 225 to 233 °C
91 | O=C(O)c1ccccc1C(=O)c1ccc(F)cc1 | 140 to 141 °C
92 | Nc1nnc(-c2ccccc2)c(Nc2ccc(I)cc2)n1 | 389 °C
93 | Cn1nc(C2CC2)cc1N | 120 to 123 °C
94 | CCCCN(CCO)CCCC | -75 °C
95 | CC(=O)OC1CC2C(C)(C)CCCC2(C)C2=C1C(=O)C(C(C)C)=C(O)C2=O (configuration not stated) | 213 °C
96 | CCNc1c(C=O)c(=O)oc2ccccc12 | 181 °C
97 | CC(C)(C)C(O)C(C)(C)C | 50 °C
98 | Nc1ccc2c(c1)CCC2=O | 184 to 186 °C
99 | COc1ccc(C(=O)c2cccc(C)c2)cc1OC | 93 °C
100 | CC(C)C12CCC(C)(O1)C(=O)OC2=O (configuration not stated) | 109 °C
101 | O=C(O)c1ccc(SSc2ccc(C(=O)O)cc2[N+](=O)[O-])c([N+](=O)[O-])c1 | 308 °C
102 | Cc1ccc(I)cc1 | 37.8 °C
103 | C(=NC(N=Cc1ccco1)c1ccco1)c1ccco1 (configuration not stated) | 117 °C
104 | O=C(Nc1ccccc1)C(=O)Nc1ccccc1 | 254 °C
105 | C#CCCCCCCCCCC | -19 °C
106 | CC1(C)CC(=O)C(=NNc2ccc(O)cc2)C(=O)C1 | 206 °C
107 | O=C(CCc1ccccc1)CCc1ccccc1 | 13.5 °C
108 | NNC(=S)Nc1ccc(OCc2ccccc2)cc1 | 167 to 170 °C
109 | O=C(O)c1c[nH]cn1 | 243 to 245 °C
110 | COc1ccc(CCCO)cc1 | 26 °C

Row | SMILES | melting point
111 | O=C(O)c1ccc(NC(=O)C(Cc2ccc(O)cc2)NC(=O)c2ccccc2)cc1 (configuration not stated) | 241 °C
112 | COC(=O)c1ccc([N+](=O)[O-])c(C)c1 | 81 °C
113 | O=C(O)c1ccc(N2CCOCC2)s1 | 135 to 137 °C
114 | Cc1cc2ccccc2oc1=O | 91 °C
115 | O=C(O)CCNC(=O)CCl | 91 to 92 °C
116 | COc1ccccc1-n1ncc2c(=O)[nH]cnc21 | 270 to 271 °C
117 | Clc1ccc2ccccc2c1 | 61 °C
118 | Cc1cc(=O)oc(C)c1C(=O)Oc1cccc(Cl)c1 | 96 °C
119 | N#CC1(c2ccccc2)Cc2ccccc2C(=O)O1 (configuration not stated) | 141 °C
120 | CSC(=NC#N)SC | 54 °C
121 | Nn1c(S)nnc1-c1ccc(Cl)cc1 | 320 °C
122 | c1ccc(C2=NCCN2)cc1 | 96.5 °C
123 | CC12CC3(C)CC(C)(C1)CC(C(=O)O)(C2)C3 | 149 to 151 °C
124 | Nc1c(Br)cccc1Br | 87.5 °C
125 | O=C(O)c1cccc2c1OCO2 | 224 to 225 °C
126 | N=C(N)NCCC[C@H](NC(=O)OCc1ccccc1)C(=O)O | 173 to 175 °C
127 | COC(=O)c1cccc(N)c1 | 52 to 55 °C
128 | CC(=O)c1cccc(Cl)c1O | 80 to 83 °C
129 | CCC1CC(=O)CC(C)(C)N1O (configuration not stated) | 33 to 38 °C
130 | Cc1ccc(C(=O)C2=NOC3C(=O)N(c4ccc(O)cc4)C(=O)C23)cc1 (configuration not stated) | 120 °C
131 | O=C(O)C1CC(=O)N(Cc2ccco2)C1 (configuration not stated) | 159 to 160 °C
132 | C=C=CC | -136 °C
